Assay [1] has as its target T1, CPS1 (Homo sapiens, UniProt P31327).
T1 construct: The full length, human CPS1 gene was cloned into pFastBac HTA; His6 (from the pFastBac HTA vector); made in house; host or cells: SF21 insect cells (baculovirus, Bac-to-bac)
T1 sequence (P31327 39-1500): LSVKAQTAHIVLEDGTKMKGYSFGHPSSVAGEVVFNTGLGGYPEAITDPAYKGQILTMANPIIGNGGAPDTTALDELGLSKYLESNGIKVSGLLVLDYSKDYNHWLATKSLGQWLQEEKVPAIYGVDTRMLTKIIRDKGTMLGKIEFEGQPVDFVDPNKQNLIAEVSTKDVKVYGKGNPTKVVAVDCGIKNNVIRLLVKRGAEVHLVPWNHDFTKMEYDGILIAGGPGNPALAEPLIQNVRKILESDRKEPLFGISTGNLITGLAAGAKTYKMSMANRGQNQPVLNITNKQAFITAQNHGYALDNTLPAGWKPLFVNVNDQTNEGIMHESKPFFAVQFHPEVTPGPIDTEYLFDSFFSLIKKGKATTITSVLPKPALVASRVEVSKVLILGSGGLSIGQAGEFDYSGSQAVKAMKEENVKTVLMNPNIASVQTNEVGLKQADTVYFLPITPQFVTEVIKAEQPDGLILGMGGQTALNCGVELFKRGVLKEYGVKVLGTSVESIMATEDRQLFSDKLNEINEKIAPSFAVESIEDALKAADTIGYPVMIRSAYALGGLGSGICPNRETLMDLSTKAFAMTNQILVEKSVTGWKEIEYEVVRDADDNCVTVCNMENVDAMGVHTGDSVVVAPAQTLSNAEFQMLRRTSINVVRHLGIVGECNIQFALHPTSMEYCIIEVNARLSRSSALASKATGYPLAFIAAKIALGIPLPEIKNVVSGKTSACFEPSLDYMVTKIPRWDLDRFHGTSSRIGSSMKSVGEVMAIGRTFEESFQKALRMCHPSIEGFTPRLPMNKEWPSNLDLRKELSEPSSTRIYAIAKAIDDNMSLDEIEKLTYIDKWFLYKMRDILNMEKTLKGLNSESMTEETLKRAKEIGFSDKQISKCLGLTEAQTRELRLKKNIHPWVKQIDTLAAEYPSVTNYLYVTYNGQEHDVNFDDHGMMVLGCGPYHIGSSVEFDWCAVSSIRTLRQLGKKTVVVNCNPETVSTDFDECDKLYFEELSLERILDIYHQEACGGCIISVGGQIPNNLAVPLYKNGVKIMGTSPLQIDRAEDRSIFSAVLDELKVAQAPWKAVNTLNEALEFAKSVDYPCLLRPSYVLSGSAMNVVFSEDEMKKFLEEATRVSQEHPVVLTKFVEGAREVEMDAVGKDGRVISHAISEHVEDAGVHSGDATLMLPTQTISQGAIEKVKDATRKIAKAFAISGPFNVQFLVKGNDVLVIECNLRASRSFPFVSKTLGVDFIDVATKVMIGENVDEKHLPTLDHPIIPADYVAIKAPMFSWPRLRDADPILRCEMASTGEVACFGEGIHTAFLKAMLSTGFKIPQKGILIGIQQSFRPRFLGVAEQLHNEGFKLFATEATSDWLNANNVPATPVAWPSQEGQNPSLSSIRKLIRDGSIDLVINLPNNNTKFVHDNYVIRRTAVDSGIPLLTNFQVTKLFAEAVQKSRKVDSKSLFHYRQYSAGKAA
As to the kind of experiment: ADP-Glo endpoint assay measuring the ATPase activity of CPS1. The format is biochemical. The note with it: geometric mean of a minimum of two values; 50 nM CPS1, 10 μM ATP, 0.2 mM NAG, 60 min at room temperature; read-out: ADPGlo IC50. A digest of the protocol: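 Full-length human His-tagged CPS1 from SF21 insect cells, 50 nM, preincubated 20 min with compound in pH 7.0 HEPES buffer containing KHCO3, (NH4)2SO3, MgCl2 and 0.2 mM NAG. Reaction started with 10 μM ATP, 60 min at room temperature; ADP formed detected by ADP-Glo luminescence.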

For assay [2], the target named is T1, CPS1. As to the kind of experiment: Assay 2 - Transcreener ADP FP assay (ADP formation from CPS1). The format is biochemical. As to conditions: 10 nM CPS1, varying amounts of ATP, 60 min, fluorescence polarization. As for the experimental part: CPS1 was expressed and purified from SF21 insect cells. The full length, human CPS1 gene was cloned into pFastBac HTA and baculovirus was generated using the Bac-to-bac expression system from Invitrogen. P3 virus was used to infect SF21 insect cells at a density of 1.5E6 cells/mL at an MOI of 2. Cells were harvested by centrifugation after 60 hrs and the cell pellet resuspended in lysis buffer (50 mM glycyl glycine pH 7.4, 20 mM KCl, 1 mM TCEP, 10% glycerol and 20 mM imidazole with Roche protease inhibitor tablet) before being lysed with 40 strokes of a Dounce homogenizer on ice. The insoluble fraction of the lysate was then cleared by centrifugation at 30,000 rpm for 30 min. 40 mL of supernatant was mixed with 2 mL of Ni NTA beads for 45 min at 4° C. in a 50 mL conical tube.
The beads were washed with 40 mL of wash buffer (50 mM glycyl glycine pH 7.4, 500 mM NaCl, 1 mM TCEP, 10% glycerol and 50 mM imidazole) by centrifugation and resuspension of the beads three times. Bound CPS1 protein was eluted in 6 mL of elution buffer (50 mM glycyl glycine pH 7.4, 500 mM NaCl, 1 mM TCEP, 10% glycerol and 250 mM imidazole) three times. Elution fractions were combined and concentrated using an Amicon Ultra centrifugation filter with a 10,000 molecular weight cut off. […]
ADP formation from CPS1 was measured in an endpoint assay using the Transcreener ADP FP kit from BellBbrook (Cat #3010-1K).

Some results are limits rather than exact numbers.

The results in this text go back to patent US20230026271A1, “Piperazine Compounds for Inhibiting CPS1” (Eisai R&D Management Co., Ltd., priority 2019, published 2023).

For `COc1ccc(C(=O)N2[C@H](C)CN(C(=O)c3cc(NC(C)=O)ccc3F)C[C@H]2C)c(F)c1` [Compound 103, N-(4-fluoro-3-((3R,5R)-4-(2-fluoro-4-methoxybenzoyl)-3,5-dimethylpiperazine-1-carbonyl)phenyl)acetamide], the half-inhibitory concentration (IC50) on CPS1 [1] was over 66.7 µM. As for `COc1ccc(C(=O)N2C[C@@H](C)N(C(=O)c3c[nH]c4ccc(O)cc34)[C@H](C)C2)c(F)c1` [Compound 104, ((2R,6R)-4-(2-fluoro-4-methoxybenzoyl)-2,6-dimethylpiperazin-1-yl)(5-hydroxy-1H-indol-3-yl)methanone], the IC50 on CPS1 [1] is over 66.7 µM. Regarding `COc1ccc(C(=O)N2C[C@@H](C)N(C(=O)c3ccc(OC)cc3)[C@H](C)C2)cc1` [Compound 105, ((2R,6R)-2,6-dimethylpiperazine-1,4-diyl)bis((4-methoxyphenyl)methanone)], the IC50 at CPS1 [1] worked out at 3.19 µM. Turning to `COc1ccc(C(=O)N2C[C@@H](C)N(C(=O)/C=C/c3ccc(O)cc3)[C@H](C)C2)c(F)c1` [Compound 106, (E)-1-((2R,6R)-4-(2-fluoro-4-methoxybenzoyl)-2,6-dimethylpiperazin-1-yl)-3-(4-hydroxypheny)prop-2-en-1-one], the IC50 on CPS1 [1] was determined as 4.22 µM. On the same count and under the same terms, the same measure for `COc1ccc(C(=O)N2[C@H](C)CN(C(=O)c3cnc(N)s3)C[C@H]2C)c(F)c1` [Compound 107, (2-aminothiazol-5-yl)((3R,5R)-4-(2-fluoro-4-methoxybenzoyl)-3,5-dimethylpiperazin-1-yl)methanone]: 6.44 µM. As for `COc1ccc(C(=O)N2[C@H](C)CN(C(=O)c3cc(OC)ccc3F)C[C@@H]2C)c(F)c1` [Compound 108, ((3S,5R)-4-(2-fluoro-4-methoxybenzoyl)-3,5-dimethylpiperazin-1-yl)(2-fluoro-5-methoxyphenyl)methanone], the IC50 at CPS1 [2] was over 66.7 µM.
